Results as given in patent US20230129095A1, “PEPTIDE INHIBITORS OF INTERLEUKIN-23 RECEPTOR AND THEIR USE TO TREAT INFLAMMATORY DISEASES” (Protagonist Therapeutics, Inc., priority 2020, published 2023).
*1 amine or outer side, *2 acyl side, *3 side chain or, on linkers, in order; H or OH if unused. Where a SMILES comes first, the peptide text is derived from it. Bridges are numbered along the chain shown (N, C = ends). [ ]: non-standard residue; d: D form. X5 = CC(C)c1cccc(-c2cccc3c(C[C@H](N[*:1])C(=O)[*:2])c[nH]c23)c1; X8 = COc1cccc(-c2cccc3c(C[C@H](N[*:1])C(=O)[*:2])c[nH]c23)c1; X7 = O=C([C@H](Cc1c[nH]c2cc(-c3ccccc3)ccc12)N[*:1])[*:2]; Trp(7-Ph) = N[C@@H](Cc1c[nH]c2c(-c3ccccc3)cccc12)C(=O)O; X4 = O=C([C@H](Cc1c[nH]c2c(-c3ccsc3)cccc12)N[*:1])[*:2]; Abu(4-yl) = O=C([C@H](CC[*:3])N[*:1])[*:2]; 2Nal = N[C@@H](Cc1ccc2ccccc2c1)C(=O)O; AEF = NCCOc1ccc(C[C@H](N)C(=O)O)cc1; Pen = CC(C)(S)[C@H](N)C(=O)O; αMeK = C[C@](N)(CCCCN)C(=O)O

Experiments:
Type in all cases: in vitro ADME
[1] = Stability in rat plasma; conditions: both sexes, SD rat plasma, EDTA, 37° C., up to 24 hours, read-out: t1/2: Rat Plasma EDTA
Method: Peptides of interest (20 μM) were incubated with pre-warmed rat plasma (SD rat, mixed gender pooled, EDTA, filtered through 0.22 μm, BioreclamationIVT) at 37° C. Aliquots were taken at various time points up to 24 hours (e.g. 0, 0.25, 1, 3, 6 and 24 hr), and immediately quenched with 4 volumes of organic solvent (acetonitrile/methanol (1:1) and 0.1% formic acid, containing 1 μM internal standard). Quenched samples were stored at 4° C. until the end of the experiment and centrifuged at 4,000 rpm for 10 minutes. The supernatant were diluted 1:1 with deionized water and analyzed using LC-MS. Percentage remaining at each time point was calculated based on the peak area ratio (analyte over internal standard) relative to the initial level at time zero. Half-lives were calculated by fitting to a first-order exponential decay equation using GraphPad.

[2] = Stability in simulated intestinal fluid (SIF); conditions: 37° C.; for SIF t1/2: 100 fold dilution of standard SIF concentration, 20 μM; for half-life at 20 μM: pH 6.8, 100 fold dilution of standard SIF concentration, read-out: SIF t1/2 (converted)
Method: Studies were carried out in simulated intestinal fluid (SIF) and simulated gastric fluid (SGF) to evaluate gastric stability of the peptide inhibitors of the present invention. In addition, studies were carried out to assess redox stability of the peptide inhibitors of the present invention.
SIF was prepared by adding 6.8 g of monobasic potassium phosphate and 10.0 g of pancreatin to 1.0 L of water. After dissolution, the pH was adjusted to 6.8 using NaOH. DMSO stocks (2 mM) were first prepared for the test compounds. Aliquots of the DMSO solutions were dosed into 6 individual tubes, each containing 0.5 mL of SIF, which is pre-warmed to 37° C. The final test compound concentration was 20 μM. The vials were kept in a benchtop Thermomixer® for the duration of the experiment. At each timepoint (0, 5, 10, 20, 40, 60, or 360 minutes or 24 hours), 1.0 mL of acetonitrile containing 1% formic acid was added to one vial to terminate the reaction. Samples were stored at 4° C. until the end of the experiment. After the final timepoint is sampled, the tubes were mixed and then centrifuged at 3,000 rpm for 10 minutes. Aliquots of the supernatant were removed, diluted 1:1 into distilled water containing internal standard, and analyzed by LCMS/MS. Percent remaining at each timepoint was calculated based on the peak area response ratio of test to compound to internal standard. Time 0 was set to 100%, and all later timepoints were calculated relative to time 0. Half-lives were calculated by fitting to a first-order exponential decay equation using Graphpad.

[3] = Stability in human fecal homogenate (anaerobic); conditions: pH 6.8, 20% human fecal homogenate, 37° C., up to 24 hours, read-out: t1/2: Human Feces anaerobic
Method: (§1) Studies were carried out in human or cynomolgus monkey fecal homogenate to evaluate gastrointestinal stability of the peptide inhibitors of the present invention.
(§2) Fecal homogenate ([…]) was prepared by adding 4 mL of growth medium (1 liter contains 2 g peptone water powder, 2 g yeast extract, 0.1 g NaCl, 0.04 g KH2PO4, 0.01 g CaCl2.6H2O, 0.01 g MgSO4.7H2O, 2 mL Tween 80, 0.5 g bile salts, 0.5 g L-cysteine HCl, 2 g NaHCO3, and 10 μL Vitamin K, pH adjusted to 6.8, and sterilized by filtration through a 0.22 μm filter) to every gram of feces (pooled freshly collected human or cynomolgus monkey feces). The suspension was vortexed to break up large clumps, and homogenized using a bead mill homogenizer. Centrifuged the homogenate at 2800×g for 15 min. The supernatant is taken out and used for incubations. DMSO stocks (10 mM) were first prepared for the test compounds. Incubations were performed in an anaerobic chamber conditioned at 37° C. Aliquots of the DMSO solutions were dosed into 1.0 mL aliquots of 20% fecal homogenate, which are pre-warmed to 37° C. The final test compound concentration was 20 μM. At each timepoint (0, 20 min, 1, 3, 6, or 24 hours), 100 μL aliquot of each incubation mixture is taken out and added to separate tubes containing 300 μL of 50% acetonitrile/50% methanol and an internal standard to terminate the reaction. Samples were taken out of the anaerobic chamber and stored at 4° C. until the end of the experiment. After the final timepoint is sampled, the tubes were mixed and then centrifuged at 3,000 rpm for 10 minutes. Aliquots of the supernatant were removed, diluted 1:1 into distilled water containing 0.1% formic acid, and analyzed by LC/MS/MS. Percent remaining at each timepoint was calculated based on the peak area response ratio of test to compound to internal standard. Time 0 was set to 100%, and all later timepoints were calculated relative to time 0. Half-lives were calculated by fitting to a first-order exponential decay equation using Graphpad or Excel.

[4] = Stability in cynomolgus monkey fecal homogenate (anaerobic); conditions: pH 6.8, 20% cynomolgus monkey fecal homogenate, 37° C., up to 24 hours, read-out: t1/2: Monkey Feces anaerobic (converted)
Method: as §1, §2

[5] = 20% fecal homogenate (supernatant)

Row | SMILES | half-life at 20 μM [1] | SIF t1/2 [2] | half-life at 20 μM [3, 5] | half-life at 20 μM [4, 5] | half-life at 20 μM ([1]; pooled) | half-life at 20 μM [3] | half-life at 20 μM [4] | half-life at 20 μM [2]
1 | CC(=O)NCCCC[C@H](NC(=O)[C@](C)(CCCCN)NC(=O)[C@H](Cc1ccc2ccccc2c1)NC(=O)[C@H](Cc1ccc(OCCN)cc1)NC(=O)[C@H]1NC(=O)[C@H](CCC(N)=O)NC(=O)[C@H](Cc2c[nH]c3c(-c4ccsc4)cccc23)NC(=O)[C@H]([C@@H](C)O)NC(=O)[C@H](CC(N)=O)NC(=O)[C@@H](NC(C)=O)C(C)(C)SSC1(C)C)C(=O)N[C@@H](CC(N)=O)C(=O)N[C@H](CCCCN)C(N)=O [Peptide 2] (Ac-[Pen]NT[X4]Q[Pen][AEF][2Nal][αMeK]K(Ac)N[dK]-NH2; disulfide 1-6) | > 24 h | 24 h | > 24 h | > 24 h | – | – | – | –
2 | CC(=O)NCCCC[C@@H]1NC(=O)[C@H](Cc2c[nH]c3c(-c4ccccc4)cccc23)NC(=O)[C@H]([C@@H](C)O)NC(=O)[C@H](CCC(N)=O)NC(=O)[C@@H](NC(=O)[C@@H](CCCNC(=N)N)NC(C)=O)CCSC[C@@H](C(=O)N[C@@H](Cc2ccc(OCCN)cc2)C(=O)N[C@@H](Cc2ccc3ccccc3c2)C(=O)N[C@@](C)(CCCCN)C(=O)N[C@@H](CCCCNC(C)=O)C(=O)N[C@@H](CC(N)=O)C(=O)N[C@H](CC(C)C)C(N)=O)NC1=O [Peptide 3, Ac-[(D)Arg]-Abu-Q-T-[W(7-Ph)]-[Lys(Ac)]-[Cys]-Phe[4-(2-aminoethoxy)]-[2-Nal]-[a-MeLys]-[Lys(Ac)]-N-[(D)Leu]-NH2] (Ac-[dR][Abu(4-yl)]QT[Trp(7-Ph)]K(Ac)C[AEF][2Nal][αMeK]K(Ac)N[dL]-NH2; thioether 2-7) | – | 24 h | – | – | > 24 h | > 24 h | > 24 h | –
3 | CC(=O)NCCCC[C@@H]1NC(=O)[C@H](Cc2c[nH]c3c(-c4ccccc4)cccc23)NC(=O)[C@H]([C@@H](C)O)NC(=O)[C@H](CCC(N)=O)NC(=O)[C@@H](NC(=O)[C@@H](CCCNC(=N)N)NC(C)=O)CCSC[C@@H](C(=O)N[C@@H](Cc2ccc(OCCN)cc2)C(=O)N[C@@H](Cc2ccc3ccccc3c2)C(=O)N[C@@](C)(CCCCN)C(=O)N[C@@H](CCCCNC(C)=O)C(=O)N[C@@H](CC(N)=O)C(N)=O)NC1=O [Peptide 4, Ac-[(D)Arg]-[Abu]-Q-T-[W(7-Ph)]-[Lys(Ac)]-[Cys]-Phe[4-(2-aminoethoxy)]-[2-Nal]-[a-MeLys]-[Lys(Ac)]-NNH2] (Ac-[dR][Abu(4-yl)]QT[Trp(7-Ph)]K(Ac)C[AEF][2Nal][αMeK]K(Ac)N-NH2; thioether 2-7) | – | – | – | – | > 24 h | > 24 h | 14.1 h | 5.1 h
4 | CC(=O)NCCCC[C@@H]1NC(=O)[C@H](Cc2c[nH]c3c(-c4ccccc4)cccc23)NC(=O)[C@H]([C@@H](C)O)NC(=O)[C@H](CCC(N)=O)NC(=O)[C@@H](NC(=O)[C@@H](CCCNC(=N)N)NC(C)=O)CCSC[C@@H](C(=O)N[C@@H](Cc2ccc(OCCN)cc2)C(=O)N[C@@H](Cc2ccc3ccccc3c2)C(=O)N[C@@](C)(CCCCN)C(=O)N[C@@H](CCCCNC(C)=O)C(=O)N[C@@H](CC(N)=O)C(=O)N[C@H](CCCCN)C(N)=O)NC1=O [Peptide 5, Ac-[(D)Arg]-[Abu]-Q-T-[W(7-Ph)]-[Lys(Ac)]-[Cys]-Phe[4-(2-aminoethoxy)]-[2-Nal]-[a-MeLys]-[Lys(Ac)]-N-[(D)Lys)]-NH2] (Ac-[dR][Abu(4-yl)]QT[Trp(7-Ph)]K(Ac)C[AEF][2Nal][αMeK]K(Ac)N[dK]-NH2; thioether 2-7) | – | – | – | – | > 24 h | > 24 h | > 24 h | 6 h
5 | CC(=O)NCCCC[C@@H]1NC(=O)[C@H](Cc2c[nH]c3cc(-c4ccccc4)ccc23)NC(=O)[C@H]([C@@H](C)O)NC(=O)[C@H](CC(N)=O)NC(=O)[C@@H](NC(C)=O)C(C)(C)SSC(C)(C)[C@@H](C(=O)N[C@@H](Cc2ccc(OCCN)cc2)C(=O)N[C@@H](Cc2ccc3ccccc3c2)C(=O)N[C@@](C)(CCCCN)C(=O)N[C@@H](CCCCNC(C)=O)C(=O)N[C@@H](CC(N)=O)C(=O)N[C@H](CCCCN)C(N)=O)NC1=O [Peptide 6, Ac-[Pen]-N-T-[W(6-Ph)]-[Lys(Ac)]-[Pen]-Phe[4-(2-aminoethoxy)]-[2-Nal]-[a-MeLys]-[Lys(Ac)]-N-[(D)Lys)]-NH2] (Ac-[Pen]NT[X7]K(Ac)[Pen][AEF][2Nal][αMeK]K(Ac)N[dK]-NH2; disulfide 1-6) | – | 24 h | – | – | > 24 h | > 24 h | > 24 h | –
6 | COc1cccc(-c2cccc3c(C[C@@H]4NC(=O)[C@H]([C@@H](C)O)NC(=O)[C@H](CC(N)=O)NC(=O)[C@@H](NC(C)=O)C(C)(C)SSC(C)(C)[C@@H](C(=O)N[C@@H](Cc5ccc(OCCN)cc5)C(=O)N[C@@H](Cc5ccc6ccccc6c5)C(=O)N[C@@](C)(CCCCN)C(=O)N[C@@H](CCCCNC(C)=O)C(=O)N[C@@H](CC(N)=O)C(=O)N[C@H](CCCCN)C(N)=O)NC(=O)[C@H](CCCCNC(C)=O)NC4=O)c[nH]c23)c1 [Peptide 8, Ac-[Pen]-N-T-[W(7-(3-OMePh))][Lys(Ac)]-[Pen]-Phe[4-(2-aminoethoxy)]-[2-Nal]-[a-MeLys]-[Lys(Ac)]-N-[(D)Lys)]-NH2] (Ac-[Pen]NT[X8]K(Ac)[Pen][AEF][2Nal][αMeK]K(Ac)N[dK]-NH2; disulfide 1-6) | – | 24 h | – | – | > 24 h | > 24 h | > 24 h | –
7 | CC(=O)NCCCC[C@@H]1NC(=O)[C@H](Cc2c[nH]c3c(-c4cccc(C(C)C)c4)cccc23)NC(=O)[C@H]([C@@H](C)O)NC(=O)[C@H](CC(N)=O)NC(=O)[C@@H](NC(C)=O)C(C)(C)SSC(C)(C)[C@@H](C(=O)N[C@@H](Cc2ccc(OCCN)cc2)C(=O)N[C@@H](Cc2ccc3ccccc3c2)C(=O)N[C@@](C)(CCCCN)C(=O)N[C@@H](CCCCNC(C)=O)C(=O)N[C@@H](CC(N)=O)C(=O)N[C@H](CCCCN)C(N)=O)NC1=O [Peptide 11, Ac-[Pen]-N-T-[W(7-(3-iPrPh))]-[Lys(Ac)]-[Pen]-Phe[4-(2-aminoethoxy)]-[2-Nal]-[a-MeLys]-[Lys(Ac)]-N-[(D)Lys)]-NH2] (Ac-[Pen]NT[X5]K(Ac)[Pen][AEF][2Nal][αMeK]K(Ac)N[dK]-NH2; disulfide 1-6) | – | 24 h | – | – | > 24 h | > 24 h | > 24 h | –
